In patent publication US8802597B2, “Herbicidal pyrimidines” (E I du Pont de Nemours and Company, priority 2003, dated 2014):
Read-outs that look alike come from different tables or passages of the source.

How the values were obtained:
Format in all cases: in vivo
[1] = tested on: barnyardgrass (Echinochloa crus-galli); assay: Test A pre/postemergence; details: Echinochloa crus-galli, 240 h, read-out: Plant response rating, Barnyardgrass; for pest or weed control at 125 g/ha: 125 g ai/ha; for pest or weed control at 500 g/ha: 500 g ai/ha
Procedure, shortened: (§1)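 Soil: loam blended with sand. Formulation: non-phytotoxic solvent mixture with surfactant. Timing: preemergence soil spray plus concurrent postemergence spray (plants 2–10 cm, 1–2 leaves). Readout: visual injury versus untreated controls at ~10 days, 0–100.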

[2] = tested on: crabgrass (Digitaria sanguinalis); assay: Test A pre/postemergence; details: Digitaria sanguinalis, 240 h, read-out: Plant response rating, Crabgrass; for pest or weed control at 125 g/ha: 125 g ai/ha; for pest or weed control at 500 g/ha: 500 g ai/ha
Procedure, shortened: as §1

[3] = tested on: giant foxtail (Setaria faberi); assay: Test A pre/postemergence; details: Setaria faberi, 240 h, read-out: Plant response rating, Foxtail, Giant; for pest or weed control at 125 g/ha: 125 g ai/ha; for pest or weed control at 500 g/ha: 500 g ai/ha
Procedure, shortened: as §1

[4] = tested on: morningglory (Ipomoea spp.); assay: Test A pre/postemergence; details: Ipomoea, 240 h, read-out: Plant response rating, Morningglory; for pest or weed control at 125 g/ha: 125 g ai/ha; for pest or weed control at 500 g/ha: 500 g ai/ha
Procedure, shortened: as §1

[5] = tested on: redroot pigweed (Amaranthus retroflexus); assay: Test A pre/postemergence; details: Amaranthus retroflexus, 240 h, read-out: Plant response rating, Pigweed; for pest or weed control at 125 g/ha: 125 g ai/ha; for pest or weed control at 500 g/ha: 500 g ai/ha
Procedure, shortened: as §1

[6] = tested on: velvetleaf (Abutilon theophrasti); assay: Test A pre/postemergence; details: Abutilon theophrasti, 240 h, read-out: Plant response rating, Velvetleaf; for pest or weed control at 125 g/ha: 125 g ai/ha; for pest or weed control at 500 g/ha: 500 g ai/ha
Procedure, shortened: as §1

[7] = tested on: corn (Zea mays); assay: Test C pre/postemergence; details: Zea mays; for Corn plant response rating (crop injury, 0 = no effect, 100 = complete kill) at 31 g/ha: 31 g ai/ha; for Corn plant response rating (crop injury, 0 = no effect, 100 = complete kill) at 62 g/ha: 62 g ai/ha; for Corn plant response rating (crop injury, 0 = no effect, 100 = complete kill) at 125 g/ha: 125 g ai/ha
Procedure, shortened: (§2)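 Injury scored visually 12–14 days after application on 0–100 scale (100 = complete control), relative to controls. Compounds, formulated with surfactant in non-phytotoxic solvent, applied to soil at planting (pre) or to 1- to 4-leaf plants 2–18 cm tall (post) in greenhouse.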

[8] = tested on: goosegrass (Eleusine indica); assay: Test C pre/postemergence; details: Eleusine indica; for pest or weed control at 31 g/ha: 31 g ai/ha; for pest or weed control at 62 g/ha: 62 g ai/ha; for pest or weed control at 125 g/ha: 125 g ai/ha
Procedure, shortened: as §2

[9] = tested on: lambsquarters (Chenopodium album); assay: Test C pre/postemergence; details: Chenopodium album; for pest or weed control at 31 g/ha: 31 g ai/ha; for pest or weed control at 62 g/ha: 62 g ai/ha; for pest or weed control at 125 g/ha: 125 g ai/ha
Procedure, shortened: as §2

[10] = tested on: soybean (Glycine max); assay: Test C pre/postemergence; details: Glycine max; for plant injury at 31 g/ha: 31 g ai/ha; for plant injury at 62 g/ha: 62 g ai/ha
Procedure, shortened: as §2

[11] = tested on: chickweed (Stellaria media); assay: Test C postemergence; details: Stellaria media, post-emergence
Procedure, shortened: as §2

[12] = post-emergence, Postemergence, 0 to 100 scale (0 no effect, 100 complete control)
[13] = pre-emergence, Preemergence, 0 to 100 scale where 0 is no effect and 100 is complete control, approximately ten days
[14] = post-emergence, Postemergence, read-out: Plant response rating (scale of 0 to 100), Corn
[15] = pre-emergence, Preemergence, scale 0 to 100, 0 no effect, 100 complete control, read-out: Plant response rating, Corn
[16] = post-emergence, Postemergence, read-out: Plant response rating (scale of 0 to 100), Goosegrass
[17] = pre-emergence, Preemergence, scale 0 to 100, 0 no effect, 100 complete control, read-out: Plant response rating, Goosegrass
[18] = post-emergence, Postemergence, read-out: Plant response rating (scale of 0 to 100), Lambsquarters
[19] = pre-emergence, Preemergence, scale 0 to 100, 0 no effect, 100 complete control, read-out: Plant response rating, Lambsquarters
[20] = post-emergence, Postemergence, read-out: Plant response rating (scale of 0 to 100), Soybean
[21] = pre-emergence, Preemergence, scale 0 to 100, 0 no effect, 100 complete control, read-out: Plant response rating, Soybean

Nc1nc(C2CC2)nc(C(=O)OCc2ccccc2)c1Cl [Compound 78, phenylmethyl 6-amino-5-chloro-2-cyclopropyl-4-pyrimidinecarboxylate]
75%: pest or weed control at 500 g/ha [1, 13] | pest or weed control at 125 g/ha [5, 13] | pest or weed control at 125 g/ha [6, 12]
30%: plant injury at 16 g/ha ([10]; pre-emergence, Preemergence, 16 g ai/ha, scale 0 to 100, 0 no effect, 100 complete control, read-out: Plant response rating, Soybean)
20%: Corn plant response rating (crop injury, 0 = no effect, 100 = complete kill) at 62 g/ha [7, 15]
0%: Corn plant response rating (crop injury, 0 = no effect, 100 = complete kill) at 16 g/ha ([7]; pre-emergence, Preemergence, 16 g ai/ha, scale 0 to 100, 0 no effect, 100 complete control, read-out: Plant response rating, Corn) | Corn plant response rating (crop injury, 0 = no effect, 100 = complete kill) at 31 g/ha [7, 15] | pest or weed control at 31 g/ha [8, 16] | pest or weed control at 62 g/ha [8, 16] | pest or weed control at 16 g/ha ([8]; pre-emergence, Preemergence, 16 g ai/ha, scale 0 to 100, 0 no effect, 100 complete control, read-out: Plant response rating, Goosegrass) | pest or weed control at 31 g/ha [8, 17] | pest or weed control at 62 g/ha [8, 17] | pest or weed control at 125 g/ha ([8]; pre-emergence, Preemergence, scale 0 to 100, read-out: Plant response rating, Goosegrass) | pest or weed control at 16 g/ha ([9]; pre-emergence, Preemergence, 16 g ai/ha, scale 0 to 100, 0 no effect, 100 complete control, read-out: Plant response rating, Lambsquarters) | pest or weed control at 31 g/ha ([11]; 31 g ai/ha, read-out: Plant response rating (scale of 0 to 100), Chickweed) | pest or weed control at 62 g/ha ([11]; 62 g ai/ha, read-out: Plant response rating (scale of 0 to 100), Chickweed)
100%: pest or weed control at 500 g/ha [4, 13] | pest or weed control at 250 g/ha ([9]; post-emergence, Postemergence, 250 g ai/ha, scale 0 to 100, read-out: Plant response rating, Lambsquarters) | plant injury at 62 g/ha [10, 20] | plant injury at 125 g/ha ([10]; post-emergence, Postemergence, 125 g ai/ha, scale 0 to 100 (0 no effect, 100 complete control), read-out: Soybean plant response rating) | plant injury at 250 g/ha ([10]; post-emergence, Postemergence, 250 g ai/ha, scale 0 to 100, read-out: Plant response rating, Soybean)
90%: pest or weed control at 500 g/ha [1, 12] | pest or weed control at 500 g/ha [4, 12] | pest or weed control at 125 g/ha [4, 13] | pest or weed control at 500 g/ha [5, 13] | pest or weed control at 500 g/ha [6, 12] | pest or weed control at 31 g/ha [9, 18] | plant injury at 31 g/ha [10, 20]
95%: pest or weed control at 500 g/ha [5, 12] | pest or weed control at 62 g/ha [9, 18] | pest or weed control at 125 g/ha ([9]; post-emergence, Postemergence, scale 0 to 100 (0 no effect, 100 complete control), read-out: Lambsquarters plant response rating)
85%: pest or weed control at 125 g/ha [5, 12] | pest or weed control at 500 g/ha [6, 13]
65%: pest or weed control at 500 g/ha [3, 13]
40%: Corn plant response rating (crop injury, 0 = no effect, 100 = complete kill) at 31 g/ha [7, 14] | Corn plant response rating (crop injury, 0 = no effect, 100 = complete kill) at 62 g/ha [7, 14] | Corn plant response rating (crop injury, 0 = no effect, 100 = complete kill) at 125 g/ha ([7]; post-emergence, Postemergence, scale 0 to 100 (0 no effect, 100 complete control), read-out: Corn plant response rating) | Corn plant response rating (crop injury, 0 = no effect, 100 = complete kill) at 250 g/ha ([7]; post-emergence, Postemergence, 250 g ai/ha, scale 0 to 100) | Corn plant response rating (crop injury, 0 = no effect, 100 = complete kill) at 125 g/ha ([7]; pre-emergence, Preemergence, scale 0 to 100, read-out: Plant response rating, Corn) | pest or weed control at 125 g/ha ([8]; post-emergence, Postemergence, scale 0 to 100 (0 no effect, 100 complete control), read-out: Goosegrass plant response rating)
70%: pest or weed control at 125 g/ha [2, 12] | pest or weed control at 500 g/ha [2, 13] | pest or weed control at 125 g/ha [3, 12] | pest or weed control at 31 g/ha [9, 19] | plant injury at 31 g/ha [10, 21] | pest or weed control at 250 g/ha ([11]; 250 g ai/ha, scale 0 to 100, read-out: Plant response rating, Chickweed)
80%: pest or weed control at 125 g/ha [1, 12] | pest or weed control at 500 g/ha [2, 12] | pest or weed control at 500 g/ha [3, 12] | pest or weed control at 125 g/ha [4, 12] | pest or weed control at 125 g/ha [6, 13] | pest or weed control at 62 g/ha [9, 19] | pest or weed control at 125 g/ha ([9]; pre-emergence, Preemergence, scale 0 to 100, read-out: Plant response rating, Lambsquarters) | plant injury at 62 g/ha [10, 21]
55%: pest or weed control at 125 g/ha [2, 13]
10%: pest or weed control at 125 g/ha [3, 13]
45%: pest or weed control at 125 g/ha [1, 13]
50%: pest or weed control at 250 g/ha ([8]; post-emergence, Postemergence, 250 g ai/ha, scale 0 to 100, read-out: Plant response rating, Goosegrass)
